Experimental data: ChEMBL document CHEMBL4765232 (J Med Chem, 2016); call rule not given here

Legend:
[1] = Unbound clearance in Sprague-Dawley rat at 1 mg/kg, iv; format: ADME, organism-based; conditions: in vivo
[2] = Unbound Cmax in Balb/c mouse at 100 mg/kg, po formulated in 0.5 % methyl cellulose maintained at pH 3 to 4; format: ADME, organism-based; conditions: in vivo, pH 3, 100 mg/kg
[3] = Fraction unbound in Beagle dog plasma; format: ADME, cell-free, Canis lupus familiaris
[4] = Volume of distribution at steady state in Beagle dog at 1 mg/kg, iv; format: ADME, organism-based, Canis lupus familiaris; conditions: in vivo, read-out: Vdss
[5] = Tmax in Sprague-Dawley rat at 25 mg/kg, po; format: ADME, organism-based; conditions: in vivo
[6] = Clearance in Beagle dog at 1 mg/kg, iv; format: ADME, organism-based, Canis lupus familiaris; conditions: in vivo
[7] = biological target: Cytochrome P450 3A4 (Homo sapiens, UniProt P08684); assay: Time dependent inhibition of CYP3A4 (unknown origin); format: ADME
[8] = Intrinsic clearance in rat liver microsomes assessed per mg protein; format: ADME, Microsome
[9] = Oral bioavailability in Sprague-Dawley rat at 25 mg/kg; format: ADME, organism-based; conditions: in vivo
[10] = Unbound AUC in Sprague-Dawley rat at 25 mg/kg, po; format: ADME, organism-based; conditions: in vivo
[11] = AUC (0 to infinity) in Sprague-Dawley rat at 25 mg/kg, po; format: ADME, organism-based; design: route oral, time infinity, dose 25 mg/kg; conditions: in vivo
[12] = Toxicity in Beagle dog at 50 to 500 mg/kg, po BID administered via gavage […] for 28 days; format: organism-based, Canis lupus familiaris; conditions: in vivo, 672 h, dose 50-500 mg/kg, time 28 day
[13] = Tmax in Beagle dog at 5 mg/kg, po; format: ADME, organism-based, Canis lupus familiaris; conditions: in vivo
[14] = Drug concentration in plasma of CB17 SCID mouse xenografted with human KARPAS-422 cells at 160 mg/kg, po BID administered for 17 days and measured up to 12 hrs post last dose by LC-MS analysis; format: ADME, organism-based; conditions: time 17 day
[15] = Intrinsic clearance in mouse liver microsomes assessed per mg protein; format: ADME, Microsome
[16] = Drug concentration in tumor of CB17 SCID mouse xenografted with human KARPAS-422 cells at 160 mg/kg, po BID administered for 17 days and measured up to 12 hrs post last dose by LC-MS analysis; format: ADME, organism-based, Neoplasm; conditions: time 17 day, read-out: Ct
[17] = Unbound AUC in Balb/c mouse at 100 mg/kg, po formulated in 0.5 % methyl cellulose maintained at pH 3 to 4; format: ADME, organism-based; conditions: in vivo, pH 3, 100 mg/kg
[18] = Toxicity in Sprague-Dawley rat at 100 to 600 mg/kg, po QD administered via gavage as single dose for 28 days; format: organism-based; conditions: in vivo, 672 h, dose 100-600 mg/kg, time 28 day
[19] = biological target: CYP3A4 (Homo sapiens, UniProt P08684); assay: Inhibition of CYP3A4 (unknown origin) at 10 uM relative to control; format: ADME
[20] = Fraction unbound in mouse plasma; format: ADME, cell-free
[21] = biological target: T1, CYP1A2 (Homo sapiens, UniProt P05177); assay: Inhibition of CYP1A2 (unknown origin) at 10 uM relative to control; format: ADME
T1 sequence (P05177 whole entry): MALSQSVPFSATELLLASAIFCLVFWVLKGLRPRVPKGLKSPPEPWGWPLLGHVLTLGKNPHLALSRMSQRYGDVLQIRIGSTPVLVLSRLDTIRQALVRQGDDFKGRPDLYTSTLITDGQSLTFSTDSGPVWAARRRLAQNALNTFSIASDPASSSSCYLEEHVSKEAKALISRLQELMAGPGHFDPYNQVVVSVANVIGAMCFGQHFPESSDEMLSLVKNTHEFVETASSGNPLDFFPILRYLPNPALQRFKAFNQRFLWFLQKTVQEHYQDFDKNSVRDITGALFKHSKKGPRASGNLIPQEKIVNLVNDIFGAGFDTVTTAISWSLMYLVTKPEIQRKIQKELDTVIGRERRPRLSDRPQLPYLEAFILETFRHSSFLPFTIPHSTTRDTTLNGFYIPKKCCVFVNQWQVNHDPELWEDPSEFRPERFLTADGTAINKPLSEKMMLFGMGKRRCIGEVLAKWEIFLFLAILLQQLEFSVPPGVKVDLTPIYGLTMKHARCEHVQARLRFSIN

[22] = Cmax in Sprague-Dawley rat at 25 mg/kg, po; format: ADME, organism-based; design: route oral, dose 25 mg/kg; conditions: in vivo
[23] = Clearance in Sprague-Dawley rat at 1 mg/kg, iv; format: ADME, organism-based; conditions: in vivo
[24] = Oral bioavailability in Balb/c mouse at 100 mg/kg formulated in 0.5 % methyl cellulose maintained at pH 3 to 4; format: ADME, organism-based; conditions: in vivo, pH 3, 100 mg/kg
[25] = Protein binding in rat plasma assessed as bound fraction; format: ADME, cell-free; conditions: read-out: PPB (converted)
[26] = biological target: Voltage-gated inwardly rectifying potassium channel KCNH2 (Homo sapiens, UniProt Q12809)
Description: Binding affinity to human ERG

[27] = Clearance in Beagle dog at 1 mg/kg, iv relative to liver blood flow; format: ADME, organism-based, Canis lupus familiaris; conditions: in vivo
[28] = Clearance in Sprague-Dawley rat at 1 mg/kg, iv relative to liver blood flow; format: ADME, organism-based; conditions: in vivo
[29] = biological target: T2, Cytochrome P450 1A2 (Homo sapiens, UniProt P05177); assay: Time dependent inhibition of CYP1A2 (unknown origin); format: ADME
T2 sequence (P05177 whole entry): T1 sequence (P05177 whole entry)

[30] = Protein binding in mouse plasma assessed as bound fraction; format: ADME, cell-free
[31] = Clearance in Balb/c mouse at 1 mg/kg, iv formulated with 5:60:35 DMA/PEG400/20% SBECD; format: ADME, organism-based; conditions: in vivo
[32] = biological target: Cytochrome P450 2C9 (Homo sapiens, UniProt P11712); assay: Time dependent inhibition of CYP2C9 (unknown origin); format: ADME
[33] = Protein binding in human plasma assessed as bound fraction; format: ADME, cell-free; conditions: read-out: PPB (converted)
[34] = Volume of distribution at steady state in Sprague-Dawley rat at 1 mg/kg, iv; format: ADME, organism-based; conditions: in vivo, read-out: Vdss

Sequence of Cytochrome P450 2C9 (P11712 whole entry): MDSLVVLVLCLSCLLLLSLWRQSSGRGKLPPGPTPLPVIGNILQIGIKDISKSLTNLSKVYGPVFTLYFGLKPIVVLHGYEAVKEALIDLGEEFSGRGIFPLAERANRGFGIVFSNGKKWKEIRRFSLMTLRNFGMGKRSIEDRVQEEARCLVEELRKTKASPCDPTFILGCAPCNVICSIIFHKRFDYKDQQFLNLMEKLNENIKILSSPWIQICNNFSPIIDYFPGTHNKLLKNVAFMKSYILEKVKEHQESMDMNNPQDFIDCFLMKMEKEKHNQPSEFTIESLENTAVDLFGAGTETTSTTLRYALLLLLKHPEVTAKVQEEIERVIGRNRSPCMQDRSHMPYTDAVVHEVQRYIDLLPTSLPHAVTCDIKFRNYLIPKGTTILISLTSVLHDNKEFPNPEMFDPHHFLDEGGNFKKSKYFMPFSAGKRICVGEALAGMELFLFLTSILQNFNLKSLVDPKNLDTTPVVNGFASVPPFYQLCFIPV
Sequence of Cytochrome P450 3A4 (P08684 whole entry): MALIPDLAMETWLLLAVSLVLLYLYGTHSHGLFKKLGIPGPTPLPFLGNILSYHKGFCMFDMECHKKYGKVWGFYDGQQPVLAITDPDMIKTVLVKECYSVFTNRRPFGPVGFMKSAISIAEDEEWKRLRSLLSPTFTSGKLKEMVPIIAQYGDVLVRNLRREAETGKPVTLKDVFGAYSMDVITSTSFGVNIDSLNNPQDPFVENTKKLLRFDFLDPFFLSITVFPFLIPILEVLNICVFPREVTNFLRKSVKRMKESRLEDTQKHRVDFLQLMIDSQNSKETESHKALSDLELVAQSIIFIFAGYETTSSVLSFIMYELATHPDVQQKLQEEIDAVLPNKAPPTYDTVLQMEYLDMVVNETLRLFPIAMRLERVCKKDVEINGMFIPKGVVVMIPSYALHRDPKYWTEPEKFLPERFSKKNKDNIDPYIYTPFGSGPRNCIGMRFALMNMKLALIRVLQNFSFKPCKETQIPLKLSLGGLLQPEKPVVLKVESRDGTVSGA
Sequence of CYP3A4 (P08684 whole entry): as above
Sequence of Voltage-gated inwardly rectifying potassium channel KCNH2 (Q12809 whole entry): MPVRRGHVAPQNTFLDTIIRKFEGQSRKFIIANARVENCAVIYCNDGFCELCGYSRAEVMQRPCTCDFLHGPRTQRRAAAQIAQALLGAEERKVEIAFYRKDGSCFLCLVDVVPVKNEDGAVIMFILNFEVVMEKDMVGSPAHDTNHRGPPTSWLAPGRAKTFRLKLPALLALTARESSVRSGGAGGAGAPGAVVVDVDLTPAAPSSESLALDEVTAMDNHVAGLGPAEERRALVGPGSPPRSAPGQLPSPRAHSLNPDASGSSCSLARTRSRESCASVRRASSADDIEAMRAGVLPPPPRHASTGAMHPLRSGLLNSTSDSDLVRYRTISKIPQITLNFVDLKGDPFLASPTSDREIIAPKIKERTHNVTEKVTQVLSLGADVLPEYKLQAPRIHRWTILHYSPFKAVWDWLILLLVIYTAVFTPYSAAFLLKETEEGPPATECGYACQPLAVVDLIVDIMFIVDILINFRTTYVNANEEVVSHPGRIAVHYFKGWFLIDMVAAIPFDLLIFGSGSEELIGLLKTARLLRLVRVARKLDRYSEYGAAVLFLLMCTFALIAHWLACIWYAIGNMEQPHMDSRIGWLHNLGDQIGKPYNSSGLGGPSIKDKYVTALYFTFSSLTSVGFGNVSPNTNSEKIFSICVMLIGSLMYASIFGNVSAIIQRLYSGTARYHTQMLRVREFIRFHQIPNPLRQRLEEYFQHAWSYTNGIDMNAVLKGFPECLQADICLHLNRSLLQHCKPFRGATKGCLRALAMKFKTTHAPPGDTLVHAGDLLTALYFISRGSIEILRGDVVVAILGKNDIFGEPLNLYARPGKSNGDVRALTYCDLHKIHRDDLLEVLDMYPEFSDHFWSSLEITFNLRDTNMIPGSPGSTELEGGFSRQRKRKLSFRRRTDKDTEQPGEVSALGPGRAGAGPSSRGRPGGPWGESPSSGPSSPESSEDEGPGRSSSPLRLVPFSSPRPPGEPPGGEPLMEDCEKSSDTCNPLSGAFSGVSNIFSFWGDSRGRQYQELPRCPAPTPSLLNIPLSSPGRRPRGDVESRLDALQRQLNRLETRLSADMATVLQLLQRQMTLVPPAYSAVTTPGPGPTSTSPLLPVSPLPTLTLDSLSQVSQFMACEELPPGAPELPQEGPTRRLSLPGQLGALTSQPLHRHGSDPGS

## COc1cc(C)[nH]c(=O)c1CNC(=O)c1c(C)n([C@H](C)C2CCN(CC(F)(F)F)CC2)c2ccccc12 [CPI-1205]
[1]
  CL free: 31.6 L/h/kg
[2]
  fCmax: 1.41 µM
[3]
  Fu: 0.021%
[4]
  Vd: 1.6 L/kg
[5]
  Tmax: 0.5 h
[6]
  clearance: 1.41 L/h/kg
[7]
  TDI: Not Active
[8]
  CLH: 99.6 µL/min
[9]
  F: 44.6%
[10]
  fAUC: 0.713 µM·h
[11]
  AUC(0-inf): 7.06 µM·h
[12]
  Activity: Non-Toxic
[13]
  Tmax: 1.67 h
[14]
  concentration at 408 h: 11.4 µg/mL
[15]
  CLH: 159 µL/min
[16]
  concentration at 408 h: 5290 ng/g
[17]
  fAUC: 1.87 µM·h
[18]
  Activity: Non-Toxic
[19]
  inhibition at 10 µM: 0%
[20]
  Fu: 0.021%
[21]
  inhibition at 10 µM: 15%
[22]
  Cmax: 5.88 µM
[23]
  clearance: 3.19 L/h/kg
[24]
  F: 100%
[25]
  fraction unbound: 0.101
[26]
  IC50: 21.3 µM
[27]
  CL: 76%
[28]
  CL: 97%
[29]
  TDI: Not Active
[30]
  PPB: 97.9%
[31]
  clearance: 2.16 L/h/kg
[32]
  TDI: Not Active
[33]
  fraction unbound: 0.072
[34]
  Vd: 2.22 L/kg
